Source: PubChem BioAssay AID330 (DTP/NCI, 2004)
Where “and” joins values, the source holds several entries; their conditions need not be identical. Identical values can stand only once. Inconclusive results and toxic doses are left out. The calls were made as follows: active = survival T/C of 150% or more; inactive = T/C below 125% in these data.

Tested on: P388 leukemia ip, CD2F1 mice, survival T/C
Test: NCI In Vivo Anticancer Drug Screen. Data for tumor model P388 Leukemia (intraperitoneal) in CD2F1 (CDF1) mice
Conditions: endpoint: median survival time, higher = longer survival
How it was run: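 Mice carrying the transplanted tumor received test compound or vehicle. Survival was recorded in each group, and the value is the treated-group measurement divided by that of the vehicle-treated control group.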

Measured: T/C

CCCCNCCCNCCCNC(=O)c1csc(-c2csc(CCNC(=O)C(NC(=O)C(C)C(O)C(C)NC(=O)C(NC(=O)c3nc(C(CC(N)=O)NCC(N)C(N)=O)nc(N)c3C)C(OC3OC(CO)C(O)C(O)C3OC3OC(CO)C(O)C(OC(N)=O)C3O)c3cnc[nH]3)C(C)O)n2)n1 (stereo unspecified)
inactive: dose: 0.62 mg/kg/injection, schedule: Q01DX009 (ip), vehicle: water 104 % of control and 105 % of control | dose: 1.25 mg/kg/injection, schedule: Q01DX009 (ip), vehicle: water 104 % of control and 105 % of control | dose: 2.5 mg/kg/injection, schedule: Q01DX009 (ip), vehicle: water 104 % of control and 110 % of control and 117 % of control | dose: 5.0 mg/kg/injection, schedule: Q01DX009 (ip), vehicle: water 108 % of control and 117 % of control and 120 % of control | dose: 10.0 mg/kg/injection, schedule: Q01DX009 (ip), vehicle: water 104 % of control | dose: 20.0 mg/kg/injection, schedule: Q01DX009 (ip), vehicle: water 105 % of control | dose: 40.0 mg/kg/injection, schedule: Q01DX009 (ip), vehicle: water 89 % of control

CC(=O)C1CC2CN(C(=O)OCC(Cl)(Cl)Cl)C1C=C2c1ccccc1 (stereo unspecified)
inactive: dose: 100.0 mg/kg/injection, schedule: Q04DX002 (ip), vehicle: saline 91 % of control | dose: 200.0 mg/kg/injection, schedule: Q04DX002 (ip), vehicle: saline 94 % of control | dose: 400.0 mg/kg/injection, schedule: Q04DX002 (ip), vehicle: saline 94 % of control

Nc1cncc2nnnn12
inactive: dose: 60.0 mg/kg/injection, schedule: Q01DX005 (ip), vehicle: Klucel (hydroxypropylcellulose) (HPC) 104 % of control | dose: 120.0 mg/kg/injection, schedule: Q01DX005 (ip), vehicle: Klucel (hydroxypropylcellulose) (HPC) 104 % of control | dose: 240.0 mg/kg/injection, schedule: Q01DX005 (ip), vehicle: Klucel (hydroxypropylcellulose) (HPC) 113 % of control

Cc1cc2cc3c(=O)[nH]c(=O)cc-3n(CC(O)C(O)C(O)CO)c2cc1C (stereo unspecified)
inactive: dose: 12.5 mg/kg/injection, schedule: Q01DX009 (ip), vehicle: other 102 % of control | dose: 25.0 mg/kg/injection, schedule: Q01DX009 (ip), vehicle: other 96 % of control | dose: 50.0 mg/kg/injection, schedule: Q01DX009 (ip), vehicle: other 96 % of control | dose: 100.0 mg/kg/injection, schedule: Q01DX009 (ip), vehicle: other 95 % of control

O=C(O)c1ccc(N2N=C3C(=CC(=O)c4ccccc43)SCC2=O)cc1
inactive: dose: 12.5 mg/kg/injection, schedule: Q01DX005 (ip), vehicle: saline + Tween-80 + alcohol 97 % of control | dose: 25.0 mg/kg/injection, schedule: Q01DX005 (ip), vehicle: saline + Tween-80 + alcohol 112 % of control

CCNCCC1(C)Oc2ccccc2O1
inactive: dose: 100.0 mg/kg/injection, schedule: Q01DX001 (ip), vehicle: saline 97 % of control

CCc1cc2c(c3c1C(=O)CC3)C(C)(C)CCC2
inactive: dose: 50.0 mg/kg/injection, schedule: Q01DX005 (ip), vehicle: saline + Tween-80 + alcohol 106 % of control | dose: 100.0 mg/kg/injection, schedule: Q01DX005 (ip), vehicle: saline + Tween-80 + alcohol 92 % of control | dose: 200.0 mg/kg/injection, schedule: Q01DX005 (ip), vehicle: saline + Tween-80 + alcohol 97 % of control

COc1cc(C(C)(C)C)cc(OC)c1C(O)(c1c(OC)cc(C(C)(C)C)cc1OC)c1c(OC)cc(C(C)(C)C)cc1OC
inactive: dose: 25.0 mg/kg/injection, schedule: Q01DX009 (ip), vehicle: saline with Tween-80 121 % of control | dose: 100.0 mg/kg/injection, schedule: Q01DX009 (ip), vehicle: saline with Tween-80 104 % of control

COc1ccc2c(c1)CCC1C=NOC21 (stereo unspecified)
inactive: dose: 50.0 mg/kg/injection, schedule: Q01DX005 (ip), vehicle: Klucel (hydroxypropylcellulose) (HPC) 97 % of control | dose: 100.0 mg/kg/injection, schedule: Q01DX005 (ip), vehicle: Klucel (hydroxypropylcellulose) (HPC) 103 % of control | dose: 200.0 mg/kg/injection, schedule: Q01DX005 (ip), vehicle: Klucel (hydroxypropylcellulose) (HPC) 97 % of control

CC(=O)/C(=C\c1ccc(Cl)cc1)C(=O)CCN(C)C
inactive: dose: 50.0 mg/kg/injection, schedule: Q01DX005 (ip), vehicle: saline 112 % of control | dose: 100.0 mg/kg/injection, schedule: Q01DX005 (ip), vehicle: saline 118 % of control

CC(=O)Nc1cccc([N+](=O)[O-])c1
inactive: dose: 50.0 mg/kg/injection, schedule: Q04DX003 (ip), vehicle: saline with Tween-80 110 % of control | dose: 100.0 mg/kg/injection, schedule: Q04DX003 (ip), vehicle: saline with Tween-80 110 % of control | dose: 200.0 mg/kg/injection, schedule: Q04DX003 (ip), vehicle: saline with Tween-80 110 % of control

Cc1nn(C(=O)c2ccncc2)c(C)c1N=Nc1ccc(S(=O)(=O)N=C(N)N)cc1
inactive: dose: 50.0 mg/kg/injection, schedule: Q01DX009 (ip), vehicle: Klucel (hydroxypropylcellulose) (HPC) 97 % of control | dose: 100.0 mg/kg/injection, schedule: Q01DX009 (ip), vehicle: Klucel (hydroxypropylcellulose) (HPC) 95 % of control | dose: 200.0 mg/kg/injection, schedule: Q01DX009 (ip), vehicle: Klucel (hydroxypropylcellulose) (HPC) 100 % of control
